From the supplement of paper PMC12137928
Counter-ions that a name gives are not always drawn.

Tested on: HCT116
Details: 72 h
Outline: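 Each well of the 1536-well plates received 250 HCT116 cells, which attached over 5 h. Luminescence was measured with CellTiter-Glo, scaled with vehicle as 0% and positive control as -100%, and pattern-corrected. A four-parameter Hill fit yielded IC50 and maximal efficacy.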

| SMILES | IC50 cell viability (ICRF193 0 nM) [µM] | IC50 cell viability (ICRF193 200 nM) [µM] |
| --- | --- | --- |
| C=CCN1CCc2nc(N)sc2CC1 [Talipexole] | > 45.8 | > 45.8 |
| O=C(O)CCCCCCCC(=O)O [Nonanedioic acid] | > 45.8 | > 45.8 |
| CN(C)CC(=O)O [N,N-DIMETHYLGLYCINE HYDROCHLORIDE] | > 45.8 | > 45.8 |
| O=C(O)Cc1cccc(-c2cc(CCCCCCc3ccc(O[C@H]4O[C@H](CO)[C@@H](O)[C@H](O)[C@@H]4O)c(-c4cccc(CC(=O)O)c4)c3)ccc2O[C@H]2O[C@H](CO)[C@@H](O)[C@H](O)[C@@H]2O)c1 [Bimosiamose] | > 45.8 | > 45.8 |
| Oc1ccccc1 [Phenol] | > 45.8 | > 45.8 |
| C[C@]12C=CC(=O)C=C1CC[C@@H]1[C@@H]2[C@@H](O)C[C@@]2(C)[C@H]1CC[C@]2(O)C(=O)COC(=O)c1cccc(S(=O)(=O)O)c1 [Predocol] | > 45.8 | > 45.8 |
| Clc1cccc(C(c2ccc3[nH]cnc3c2)n2ccnc2)c1 (centres undefined) [Liarozole] | > 45.8 | > 45.8 |
| O=C1NC(c2ccccc2)(c2ccccc2)C(=O)N1COP(=O)(O)O [Fosphenytoin] | > 45.8 | > 45.8 |
| O=[N+]([O-])c1ccc(/C=N/O)o1 [Nifuroxime] | > 45.8 | > 45.8 |
| C=CCC1(C(C)CC)C(=O)NC(=O)NC1=O (centres undefined) [Talbutal] | > 45.8 | > 45.8 |
| O=c1[nH]cnc2c1ncn2[C@H]1CC[C@@H](CO)O1 [2',3'-Dideoxyinosine] | > 45.8 | > 45.8 |
| CCOC(=O)C1=C(C)NC(C)=C(C(=O)OC)C1c1cccc([N+](=O)[O-])c1 (centres undefined) [Nitrendipine] | > 45.8 | > 45.8 |
| C[N+]1(C)[C@@H]2CC[C@H]1C[C@@H](OC(=O)C(O)c1ccccc1)C2 (some centres undefined) [HOMATROPINE METHYLBROMIDE] | > 45.8 | > 45.8 |
| CCCCC/C=C\C/C=C\CCCCCCCC(=O)OCC [Ethyl linoleate] | > 45.8 | > 45.8 |
| Cc1onc(-c2c(F)cccc2Cl)c1C(=O)N[C@@H]1C(=O)N2[C@@H]1SC(C)(C)[C@@H]2C(=O)O [Flucloxacillin sodium] | > 45.8 | > 45.8 |
| CNC(C)CC1CCCCC1 (centres undefined) [Propylhexedrine (hydrochloride)] | > 45.8 | > 45.8 |
| CNC(=O)OCc1cccc(COC(=O)NC)n1 [Pyricarbate] | > 45.8 | > 45.8 |
| Cc1cc(N2CCN([C@@H]3CN[C@H](C(=O)N4CCSC4)C3)CC2)n(-c2ccccc2)n1 [Teneligliptin] | > 45.8 | > 45.8 |
| CC(C)C(=O)OCC(=O)[C@@]12O[C@H](C3CCCCC3)O[C@@H]1C[C@H]1[C@@H]3CCC4=CC(=O)C=C[C@]4(C)[C@H]3[C@@H](O)C[C@@]12C [Ciclesonide] | > 45.8 | > 45.8 |
| O=C(O)CNC(=O)c1ccccc1 [Hippuric acid] | > 45.8 | > 45.8 |
| CCOc1ccc(NS(=O)(=O)c2ccc(N)cc2)nn1 [Sulfaethoxypyridazine] | > 45.8 | > 45.8 |

| SMILES | IC50 cell viability (ICRF193 0 nM) [µM] | IC50 cell viability (ICRF193 200 nM) [µM] |
| --- | --- | --- |
| Cc1cc(C(C)(C)C)c(O)c(C)c1CC1=NCCN1 [Oxymetazoline hydrochloride] | > 45.8 | > 45.8 |
| O=C1N=C(N2CCOCC2)CN1c1ccc(Cl)cc1 [AWD 131-138] | > 45.8 | > 45.8 |
| CN(C)CCOC(C)(c1ccccc1)c1ccccn1 (centres undefined) [Doxylamine succinate] | > 45.8 | > 45.8 |
| CCCCCCCCCC(=O)OCCN1CCN(CC/C=C2\c3ccccc3Sc3ccc(C(F)(F)F)cc32)CC1 [FLUPENTIXOL DECANOATE] | > 45.8 | > 45.8 |
| NS(=O)(=O)c1cc(C2(O)NC(=O)c3ccccc32)ccc1Cl (centres undefined) [Chlorthalidone] | > 45.8 | > 45.8 |
| COC(=O)c1ccccc1O [Methyl salicylate] | > 45.8 | > 45.8 |
| OCC(CO)N[C@H]1C[C@](O)(CO)[C@@H](O)[C@H](O)[C@H]1O [Voglibose] | > 45.8 | > 45.8 |
| CCOc1cc(CC(=O)N[C@@H](CC(C)C)c2ccccc2N2CCCCC2)ccc1C(=O)O [Repaglinide] | > 45.8 | > 45.8 |
| NC(=Nc1ccccc1)Nc1ccccc1 [1,3-Diphenylguanidine] | > 45.8 | > 45.8 |
| CNc1ncc(-c2ccc3c(=O)c(C(=O)O)cn(C4CC4)c3c2C)cc1C [OZENOXACIN] | > 45.8 | > 45.8 |
| CCCCC[C@H](O)/C=C/[C@@H]1[C@H]2C/C(=C/CCCC(=O)O)O[C@H]2C[C@H]1O [Epoprostenol sodium] | > 45.8 | > 45.8 |
| CC#CCC(C)[C@H](O)/C=C/[C@@H]1[C@H]2C/C(=C/CCCC(=O)O)C[C@H]2C[C@H]1O (some centres undefined) [Iloprost] | > 45.8 | > 45.8 |
| CO[C@H]1C[C@H](O[C@H]2[C@H](C)[C@@H](O[C@@H]3O[C@H](C)C[C@H](N(C)C)[C@H]3OC(C)=O)[C@@H](C)C[C@@]3(CO3)C(=O)[C@H](C)[C@@H](OC(C)=O)[C@@H](C)[C@@H](C)OC(=O)[C@@H]2C)O[C@@H](C)[C@@H]1OC(C)=O [Troleandomycin] | > 45.8 | > 45.8 |
| CCn1nc(C(=O)O)c(=O)c2cc3c(cc21)OCO3 [Cinoxacin] | > 45.8 | > 45.8 |
| CN(C)[C@@H]1C(O)=C(C(N)=O)C(=O)[C@@]2(O)C(O)=C3C(=O)c4c(O)ccc(Cl)c4[C@@](C)(O)[C@H]3C[C@@H]12 [Chlortetracycline HCl] | > 45.8 | > 45.8 |
| COc1ccc(CN(C(=O)[C@@H](N)Cc2c(C)cc(C(N)=O)cc2C)[C@@H](C)c2ncc(-c3ccccc3)[nH]2)cc1C(=O)O [Eluxadoline] | > 45.8 | > 45.8 |
| CCCCNc1ccc(C(=O)OCCOCCOCCOCCOCCOCCOCCOCCOCCOC)cc1 [Benzonatate] | > 45.8 | > 45.8 |
| O=C(O)C(Cl)(Cl)Cl [Trichloroacetic acid] | > 45.8 | > 45.8 |
| N[C@@H](Cc1ccc(N(CCCl)CCCl)cc1)C(=O)O [Melphalan] | > 45.8 | > 45.8 |
| Cc1ccsc1C(=CCCN1CCC[C@@H](C(=O)O)C1)c1sccc1C [Tiagabine hydrochloride] | > 45.8 | > 45.8 |
| CCOc1ccc(NC(C)=O)cc1 [Phenacetin] | > 45.8 | > 45.8 |

| SMILES | IC50 cell viability (ICRF193 0 nM) [µM] | IC50 cell viability (ICRF193 200 nM) [µM] |
| --- | --- | --- |
| CCc1cc2c(cc1N1CCC(N3CCOCC3)CC1)C(C)(C)c1[nH]c3cc(C#N)ccc3c1C2=O [Alectinib] | > 45.8 | > 45.8 |
| Cc1[nH]c(=O)c(C#N)cc1-c1ccc2nccn2c1 [Olprinone] | > 45.8 | > 45.8 |
| Cc1ncc(COP(=O)(O)O)c(C=O)c1O [Pyridoxal phosphate hydrate] | > 45.8 | > 45.8 |
| CC(=O)OCC(COC(C)=O)OC(C)=O [Triacetin] | > 45.8 | > 45.8 |
| CC#C[C@]1(O)CC[C@H]2[C@@H]3C[C@H](C)C4=CC(=O)CC[C@]4(C)[C@H]3CC[C@@]21C [Dimethisteron] | > 45.8 | > 45.8 |
| CCCC(CCC)C(=O)O[C@H]1C[C@H]2CC[C@@H](C1)[N+]2(C)C [Anisotropine methylbromide] | > 45.8 | > 45.8 |
| COC(COC(N)=O)C1=C(N2CC2)C(=O)C(C)=C(N2CC2)C1=O (centres undefined) [Carboquone] | > 45.8 | > 45.8 |
| CC(C)(Oc1ccc(CCNC(=O)c2ccc(Cl)cc2)cc1)C(=O)O [Bezafibrate] | > 45.8 | > 45.8 |
| N[C@@H](CSSC[C@H](N)C(=O)O)C(=O)O [L-Cystine] | > 45.8 | > 45.8 |
| CC1=C[C@H](O)CC(C)(C)[C@H]1/C=C/C(C)=C/C=C/C(C)=C/C=C/C=C(C)/C=C/C=C(C)/C=C/C1=C(C)C[C@@H](O)CC1(C)C [Xanthophyll] | > 45.8 | > 45.8 |
| Cc1ncsc1CCCl [Clomethiazole] | > 45.8 | > 45.8 |
| OCc1ccccc1 [Benzyl alcohol] | > 45.8 | > 45.8 |
| COC(=O)N[C@H](C(=O)N1CCC[C@H]1c1nc(-c2ccc3c(c2)O[C@@H](c2ccccc2)n2c-3cc3cc(-c4c[nH]c([C@@H]5CCCN5C(=O)[C@@H](NC(=O)OC)C(C)C)n4)ccc32)c[nH]1)C(C)C [Elbasvir] | > 45.8 | > 45.8 |
| CC(C)(O/N=C(\C(=O)N[C@@H]1C(=O)N2C(C(=O)[O-])=C(C[n+]3ccccc3)CS[C@H]12)c1csc(N)n1)C(=O)O [Ceftazidime] | > 45.8 | > 45.8 |
| N[C@H](CC(=O)O)C(=O)O [D-Aspartic acid] | > 45.8 | > 45.8 |
| C[C@H](N)[C@H](O)c1ccc(O)c(O)c1 [Levonordefrin] | > 45.8 | > 45.8 |
| CC(=O)Nc1ccc(CC(=O)O)cc1 [4-Acetylaminophenylacetic acid] | > 45.8 | > 45.8 |
| CC(=O)Nc1c(I)c(C(=O)N[C@H]2C(O)O[C@H](CO)[C@@H](O)[C@@H]2O)c(I)c(N(C)C(C)=O)c1I (some centres undefined) [Metrizamide] | > 45.8 | > 45.8 |
| O=C(O)/C=C/c1ccccc1 [CINNAMIC ACID] | > 45.8 | > 45.8 |
| O=C1[C@@H]2[C@H]3CC[C@H](C3)[C@@H]2C(=O)N1CCCCN1CCN(c2ncccn2)CC1 [Tandospirone] | > 45.8 | > 45.8 |
